Assay results as given in publication PMC12439760 (Bioorganic & medicinal chemistry, 2025).
Where “and” joins values, the source holds several entries; their conditions need not be identical. Identical values can stand only once.

Key:
CYP1A2 = CYP1A2 induction assay in HepaRG cells; assay type: cell-based, human; details: 10 μM, 24 hrs, % of positive control 50 μM omeprazole
CYP2B6 = CYP2B6 induction assay in HepaRG cells; assay type: cell-based, human; details: 10 μM, 24 hrs, % of positive control 1 mM phenobarbital
hCB1 receptor [1] = molecular target: T1, hCB1 receptor (Homo sapiens, UniProt P21554); test: hCB1 Gαq16-coupled calcium mobilization assay in CHO-K1 cells; assay type: cell-based; details: hCB1 Ca EC50, CHO cells expressing hCB1 and Gαq16, calcium mobilization
T1 sequence (P21554 whole entry): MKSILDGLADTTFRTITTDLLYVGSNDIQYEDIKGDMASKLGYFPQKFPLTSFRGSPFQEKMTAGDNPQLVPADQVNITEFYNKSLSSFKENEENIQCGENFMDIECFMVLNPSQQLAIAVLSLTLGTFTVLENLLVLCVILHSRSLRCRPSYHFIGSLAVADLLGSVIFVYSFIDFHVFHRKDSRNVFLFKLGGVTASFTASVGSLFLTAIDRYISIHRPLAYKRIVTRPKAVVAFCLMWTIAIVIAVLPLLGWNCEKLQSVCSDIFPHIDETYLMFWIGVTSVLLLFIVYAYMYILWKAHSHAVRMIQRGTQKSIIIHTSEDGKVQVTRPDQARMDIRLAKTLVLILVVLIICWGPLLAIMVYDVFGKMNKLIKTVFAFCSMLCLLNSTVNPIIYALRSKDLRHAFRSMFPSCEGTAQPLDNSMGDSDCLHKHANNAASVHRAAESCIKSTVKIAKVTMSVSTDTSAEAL

[2] = Mouse pharmacokinetic study; assay type: in vivo, C57BL/6 mice; details: for plasma levels: mice, 3 mg/kg po, data not shown
hCB2 receptor [3] = molecular target: T2, hCB2 receptor (Homo sapiens, UniProt P34972); test: hCB2 Gαq16-coupled calcium mobilization assay in CHO-K1 cells; assay type: cell-based; details: hCB2 Ca EC50, CHO cells expressing hCB2 and Gαq16, calcium mobilization
T2 sequence (P34972 whole entry): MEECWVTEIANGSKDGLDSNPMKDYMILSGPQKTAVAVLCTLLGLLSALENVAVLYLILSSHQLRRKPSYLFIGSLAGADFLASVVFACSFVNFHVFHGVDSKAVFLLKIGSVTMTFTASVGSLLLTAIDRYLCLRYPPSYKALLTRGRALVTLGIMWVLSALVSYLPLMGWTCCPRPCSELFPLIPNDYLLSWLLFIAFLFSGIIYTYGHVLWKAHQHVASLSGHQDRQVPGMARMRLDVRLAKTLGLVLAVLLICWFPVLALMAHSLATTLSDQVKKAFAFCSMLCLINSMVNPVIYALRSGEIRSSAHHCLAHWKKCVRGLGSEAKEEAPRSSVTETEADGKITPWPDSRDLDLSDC

CYP3A4 = CYP3A4 induction assay in HepaRG cells; assay type: cell-based, human; details: 10 μM, 24 hrs, % of positive control 10 μM rifampicin
Human liver microsome = assay type: in vitro ADME; details: pooled human liver microsomes, pH 7.4
hCB1 receptor [4] = molecular target: T1, hCB1 receptor; test: [3H]CP55940 radioligand displacement, CHO cell membranes overexpressing hCB1; assay type: binding
hCB2 receptor [5] = molecular target: T2, hCB2 receptor; test: [3H]CP55940 radioligand displacement, CHO cell membranes overexpressing hCB2; assay type: binding
[6] = system: CYP3A4, CYP1A2 and CYP2B6; test: Isoform-specific CYP induction assays in HepaRG cells, overall profile; assay type: cell-based, human; details: data not shown

SMILES | EC50 (hCB1 receptor [1]) | EC50 (hCB2 receptor [3]) [nM] | half-life at 1 μM (Human liver microsome) [h] | microsomal CLint at 1 μM (Human liver microsome) [µL/min/mg] | other results
CC(C)(NC(=O)c1nn(Cc2ccc(F)cc2F)c2ccccc12)c1cccc(C(N)=O)c1 [Compound 45, N-[2-(3-Carbamoylphenyl)propan-2-yl]-1-[(2,4-difluorophenyl)methyl]-1H-indazole-3-carboxamide] | 151 ± 32 nM | 35 ± 6 | > 3.33 | < 5 | CYP1A2 Induction (% of Omeprazole) (CYP1A2): 20%; CYP2B6 Induction (% of Phenobarbital) (CYP2B6): 6%; Max. Conc. Brain ([2]; mouse, PO 3 mg/kg, at 0.5 h): 11 ng/mL; Max. Conc. Liver ([2]; mouse, PO 3 mg/kg, at 0.5 h): 920 ng/mL; Max. Conc. Plasma ([2]; mouse, PO 3 mg/kg, at 0.5 h): 160 ng/mL; Plasma Half-life (HL) ([2]; mouse, PO 3 mg/kg, 3 mg/kg): 7.3 h; CYP3A4 Induction (% of Rifampicin) (CYP3A4): 66%
CC(C)(NC(=O)c1nn(Cc2ccc(C#N)cc2)c2ccccc12)c1cccc(C(N)=O)c1 [Compound 44, N-[2-(3-Carbamoylphenyl)propan-2-yl]-1-[(4-cyanophenyl)methyl]-1H-indazole-3-carboxamide] | 234 ± 154 nM | > 10000 | > 3.33 | < 5 | 
CC(C)(NC(=O)c1nn(CC2CCCC2)c2ccccc12)c1cccc(C(N)=O)c1 [Compound 48, N-[2-(3-Carbamoylphenyl)propan-2-yl]-1-(cyclopentylmethyl)-1H-indazole-3-carboxamide] | 893 ± 192 nM | 613 ± 351 | 0.367 | 58 | 
CC(F)(F)CCCn1nc(C(=O)NC(C)(C)c2cccc(C(N)=O)c2)c2ccccc21 [Compound 53, N-[2-(3-Carbamoylphenyl)propan-2-yl]-1-(4,4-difluoropentyl)-1H-indazole-3-carboxamide] | 463 ± 187 nM | 3420 ± 151 | 2.67 | 7.9 | Ki (hCB1 receptor [4]): 54 nM; Ki (hCB2 receptor [5]): 75 nM
CC(C)(NC(=O)c1nn(CCCCCF)c2ccccc12)c1cccc(C(N)=O)c1 [Compound 54, N-[2-(3-Carbamoylphenyl)propan-2-yl]-1-(5-fluoropentyl)-1H-indazole-3-carboxamide] | 84 ± 6 nM |  | 1.02 | 10 | plasma levels [2]: < 30 ng/mL; CYP induction profile (in words) [6]: profile similar to that of 45
CC(C)(NC(=O)c1nn(CCCCC(F)(F)F)c2ccccc12)c1cccc(C(N)=O)c1 [Compound 55, N-[2-(3-Carbamoylphenyl)propan-2-yl]-1-(5,5,5-trifluoropentyl)-1H-indazole-3-carboxamide] | 156 ± 35 nM | 341 ± 145 | 1.7 | 6 | 
CC(C)(NC(=O)c1nn(CC2CCC(F)(F)CC2)c2ccccc12)c1cccc(C(N)=O)c1 [Compound 50, N-[2-(3-Carbamoylphenyl)propan-2-yl]-1-[(4,4-difluorocyclohexyl)methyl]-1H-indazole-3-carboxamide] |  |  | > 3.33 | < 5 | Ki (hCB1 receptor [4]): 2.5 nM; Ki (hCB2 receptor [5]): 3 nM; plasma levels [2]: < 30 ng/mL; CYP induction profile (in words) [6]: profile similar to that of 45
CC(C)(NC(=O)c1nn(Cc2ccc(F)cc2)c2ccccc12)C1CCCN(CC(N)=O)C1 (centres unmarked) [Compound 34, N-{2-[1-(Carbamoylmethyl)piperidin-3-yl]propan-2-yl}-1-[(4-fluorophenyl)methyl]-1H-indazole-3-carboxamide] | 369 ± 57 nM | 28 ± 13 | < 0.333 |  | 
CC(C)(NC(=O)c1nn(Cc2ccc(F)cc2)c2ccccc12)C(=O)N1CCC[C@H]1C(N)=O [Compound 14, N-{1-[(2S)-2-Carbamoylpyrrolidin-1-yl]-2-methyl-1-oxopropan-2-yl}-1-[(4-fluorophenyl)methyl]-1H-indazole-3-carboxamide] | ~20 nM and 20 nM | 16 ± 1 | 10.2 | 2 | Ki (hCB1 receptor [4]): 4 nM; Ki (hCB2 receptor [5]): 6 nM
CCCCCn1nc(C(=O)NC(C)(C)c2cccc(C(N)=O)c2)c2ccccc21 [Compound 52, N-[2-(3-Carbamoylphenyl)propan-2-yl]-1-pentyl-1H-indazole-3-carboxamide] | 202 ± 16 nM | 175 ± 32 | 0.533 | 19 | 
CC(C)(NC(=O)c1nn(Cc2ccc(F)cc2)c2ccccc12)c1cccc(C(N)=O)c1 [Compound 24, N-[2-(3-Carbamoylphenyl)propan-2-yl]-1-[(4-fluorophenyl)methyl]-1H-indazole-3-carboxamide] | 25 ± 5 nM |  | 2.05 | 5 | CYP1A2 Induction (% of Omeprazole) (CYP1A2): <1%; CYP2B6 Induction (% of Phenobarbital) (CYP2B6): <1%; Max. Conc. Brain ([2]; mouse, IP 2.5 mg/kg, at 0.25 h): 1.4 ng/mL; Max. Conc. Liver ([2]; mouse, IP 2.5 mg/kg, at 0.25 h): 650 ng/mL; Max. Conc. Plasma ([2]; mouse, IP 2.5 mg/kg, at 0.25 h): 72 ng/mL; CYP3A4 Induction (% of Rifampicin) (CYP3A4): <1%
O=C(NCC1CCCCC1)c1nn(Cc2ccc(F)cc2)c2ccccc12 [Compound 28, N-(Cyclohexylmethyl)-1-[(4-fluorophenyl)methyl]-1H-indazole-3-carboxamide] | 17 ± 1 nM | 28 ± 8 |  |  | 
CC(C)(NC(=O)c1nn(CCCCC#N)c2ccccc12)c1cccc(C(N)=O)c1 [Compound 56, N-[2-(3-Carbamoylphenyl)propan-2-yl]-1-(4-cyanobutyl)-1H-indazole-3-carboxamide] | 731 ± 161 nM | 760 ± 175 | 3 | 7 | 
CN(CC(N)=O)C(=O)C(C)(C)NC(=O)c1nn(Cc2ccc(F)cc2)c2ccccc12 [Compound 13, N-(Carbamoylmethyl)-2-({1-[(4-fluorophenyl)methyl]-1H-indazol-3-yl}formamido)-N,2-dimethylpropanamide] | 282 ± 73 nM | 74 ± 19 |  |  | 
CNC(=O)[C@@H](NC(=O)c1nn(Cc2ccc(F)cc2)c2ccccc12)C(C)C [Compound 6, (2S)-2-({1-[(4-Fluorophenyl)methyl]-1H-indazol-3-yl}formamido)-N,3-dimethylbutanamide] | 12 ± 2 nM | 30 ± 1 |  |  | 
CC(C)(NC(=O)c1nn(Cc2ccc(F)cc2)c2ccccc12)C(=O)N1CCC[C@@H]1C(N)=O [Compound 15, N-{1-[(2R)-2-Carbamoylpyrrolidin-1-yl]-2-methyl-1-oxopropan-2-yl}-1-[(4-fluorophenyl)methyl]-1H-indazole-3-carboxamide] | > 10000 nM | > 10000 |  |  | 
CC(C)(NC(=O)c1nn(CC2CCOCC2)c2ccccc12)c1cccc(C(N)=O)c1 [Compound 51, N-[2-(3-Carbamoylphenyl)propan-2-yl]-1-(oxan-4-ylmethyl)-1H-indazole-3-carboxamide] |  |  | 3.13 | 3.3 | Ki (hCB1 receptor [4]): 150 nM; Ki (hCB2 receptor [5]): 56 nM; plasma levels [2]: < 30 ng/mL; CYP induction profile (in words) [6]: profile similar to that of 45
CC(C)(NC(=O)c1nn(Cc2ccc(F)cc2)c2ccccc12)C1CCCN(C(N)=O)C1 (centres unmarked) [Compound 31, N-[2-(1-Carbamoylpiperidin-3-yl)propan-2-yl]-1-[(4-fluorophenyl)methyl]-1H-indazole-3-carboxamide] |  | 29 ± 4 | 0.433 |  | Ki (hCB1 receptor [4]): 49 nM; Ki (hCB2 receptor [5]): 27 nM
NC(=O)CN1CCC[C@H](CNC(=O)c2nn(Cc3ccc(F)cc3)c3ccccc23)C1 [Compound 33, N-{[(3R)-1-(Carbamoylmethyl)piperidin-3-yl]methyl}-1-[(4-fluorophenyl)methyl]-1H-indazole-3-carboxamide] | 239 ± 76 nM | 170 ± 24 |  |  | 
